Results published in ChEMBL document CHEMBL1155874, “Carbonic anhydrase activators: Activation of the human cytosolic isozyme III and membrane-associated isoform IV with amino acids and amines” (Bioorg Med Chem Lett, 2008).

What was measured:
[1] = biological target: Carbonic anhydrase 3 (Homo sapiens) (UniProt P07451); experiment: Activation of human recombinant CA3 at 10 uM by stopped-flow CO2 hydration method
[2] = biological target: Carbonic anhydrase 4 (Homo sapiens) (UniProt P22748); experiment: Activation of human recombinant truncated CA4 at 10 uM by stopped-flow CO2 hydration method
Sequence of Carbonic anhydrase 4 (Homo sapiens) (P22748 whole entry, the tested form may be a part): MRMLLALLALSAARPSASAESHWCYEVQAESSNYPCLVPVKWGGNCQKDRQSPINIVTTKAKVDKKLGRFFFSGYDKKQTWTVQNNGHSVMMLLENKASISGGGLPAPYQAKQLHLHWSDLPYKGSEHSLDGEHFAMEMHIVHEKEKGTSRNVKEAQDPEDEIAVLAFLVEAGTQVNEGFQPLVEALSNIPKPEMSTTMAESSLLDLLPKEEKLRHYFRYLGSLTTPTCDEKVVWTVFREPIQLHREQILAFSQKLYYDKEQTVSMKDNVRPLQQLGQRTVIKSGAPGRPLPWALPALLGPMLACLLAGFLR

[3] = test system: N[C@H](Cc1c[nH]cn1)C(=O)O; experiment: (§1) Activity of human recombinant CA2 at 10 uM stopped-flow CO2 hydration method
[4] = test system: N[C@@H](Cc1c[nH]cn1)C(=O)O; experiment: as §1
[5] = biological target: Carbonic anhydrase 2 (Homo sapiens) (UniProt P00918); experiment: Activation of human recombinant CA2 at 10 uM by stopped-flow CO2 hydration method
[6] = biological target: Carbonic anhydrase 1 (Homo sapiens) (UniProt P00915); experiment: Activation of human recombinant CA1 at 10 uM by stopped-flow CO2 hydration method
Sequence of Carbonic anhydrase 1 (Homo sapiens) (P00915 2-261 limits assumed): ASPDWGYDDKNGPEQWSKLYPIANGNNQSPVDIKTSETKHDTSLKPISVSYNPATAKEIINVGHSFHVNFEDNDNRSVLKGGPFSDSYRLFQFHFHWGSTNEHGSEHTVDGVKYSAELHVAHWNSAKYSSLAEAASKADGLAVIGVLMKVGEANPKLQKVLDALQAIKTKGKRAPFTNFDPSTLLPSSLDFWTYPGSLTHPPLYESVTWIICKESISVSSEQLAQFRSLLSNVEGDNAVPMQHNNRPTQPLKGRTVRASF

[7] = test system: N[C@H](Cc1c[nH]cn1)C(=O)O; experiment: (§2) Activity of human recombinant CA1 at 10 uM by stopped-flow CO2 hydration method
[8] = test system: N[C@@H](Cc1c[nH]cn1)C(=O)O; experiment: as §2

Sequence of Carbonic anhydrase 3 (Homo sapiens) (P07451 whole entry, the tested form may be a part): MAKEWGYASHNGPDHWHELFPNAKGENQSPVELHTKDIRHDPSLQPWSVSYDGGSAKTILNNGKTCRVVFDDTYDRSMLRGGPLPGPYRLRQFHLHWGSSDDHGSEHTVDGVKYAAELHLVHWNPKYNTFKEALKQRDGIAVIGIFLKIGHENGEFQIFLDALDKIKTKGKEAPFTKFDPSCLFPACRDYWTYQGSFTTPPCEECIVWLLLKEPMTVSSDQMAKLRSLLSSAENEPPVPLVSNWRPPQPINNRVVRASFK
Sequence of Carbonic anhydrase 1 (Homo sapiens), P00915 (P00915 whole entry): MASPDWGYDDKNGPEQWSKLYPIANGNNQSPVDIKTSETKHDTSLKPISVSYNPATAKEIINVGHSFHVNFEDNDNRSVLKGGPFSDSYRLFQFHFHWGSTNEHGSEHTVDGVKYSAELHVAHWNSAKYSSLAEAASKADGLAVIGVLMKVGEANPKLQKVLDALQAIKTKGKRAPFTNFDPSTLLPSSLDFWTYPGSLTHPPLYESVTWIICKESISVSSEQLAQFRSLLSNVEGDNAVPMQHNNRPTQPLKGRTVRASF

Compound	Ka [1] [µM]	Ka [2] [µM]	further results
N[C@@H](Cc1ccc(O)cc1)C(=O)O	34.1	25.1	–
NCCc1ccc(O)c(O)c1	33.2	30.9	–
NCCN1CCOCC1	0.091	1.3	–
Carbonic anhydrase 2 (Homo sapiens) (from UniProt P00918)	–	–	kcat [3]: 2.7 ×10⁶ /s; kcat [4]: 4.3 ×10⁶ /s
N[C@@H](Cc1c[nH]c2ccccc12)C(=O)O	20.5	37.1	–
Nc1ccc(C[C@H](N)C(=O)O)cc1	43.2	0.079	–
N[C@H](Cc1ccc(O)c(O)c1)C(=O)O	28.7	34.7	–
NCCc1c[nH]c2ccc(O)cc12	0.78	3.14	–
N[C@@H](Cc1c[nH]cn1)C(=O)O	35.9	7.3	–
N[C@H](Cc1c[nH]c2ccccc12)C(=O)O	19	39.6	–
NCc1ccccn1	1.03	5.19	–
N[C@@H](Cc1ccc(O)c(O)c1)C(=O)O	13.5	15.3	–
CNCC(O)c1ccc(O)c(O)c1 (single isomer, unassigned)	36.4	45	Ka [5]: 96 µM; Ka [6]: 0.09 µM
NCCc1ccccn1	1.1	7.13	–
NCCN1CCNCC1	0.32	24.9	–
NCCc1c[nH]cn1	36.9	25.3	Ka [6]: 2.1 µM
Carbonic anhydrase 1 (Homo sapiens), P00915	–	–	kcat [7]: 9.1 ×10⁵ /s; kcat [8]: 13.4 ×10⁵ /s
N[C@H](Cc1c[nH]cn1)C(=O)O	1.12	12.3	–
